Results reported in PubChem BioAssay (NCI).
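All cell lines were grown in 96-well plates and treated with compound for 48 hours. The concentration for 50% growth inhibition is given as GI50. TGI: total growth inhibition.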

Columns and labels:
Assay in all cases: NCI tumour cell line growth inhibition, 48 h
LOX IMVI melanoma = test system: LOX IMVI melanoma
K-562 leukemia = test system: K-562 leukemia
UACC-257 melanoma = test system: UACC-257 melanoma
SK-MEL-5 melanoma = test system: SK-MEL-5 melanoma
HCT-116 colon = test system: HCT-116 colon
A549 NSCLC = test system: A549 NSCLC
CAKI-1 renal = test system: CAKI-1 renal
T-47D breast = test system: T-47D breast
MOLT-4 leukemia = test system: MOLT-4 leukemia
OVCAR-8 ovarian = test system: OVCAR-8 ovarian
SK-MEL-28 melanoma = test system: SK-MEL-28 melanoma
KM12 colon = test system: KM12 colon
HS 578T breast = test system: HS 578T breast
MDA-MB-231 breast = test system: MDA-MB-231 breast
COLO 205 colon = test system: COLO 205 colon
SW-620 colon = test system: SW-620 colon
DU-145 prostate = test system: DU-145 prostate
A498 renal = test system: A498 renal
HOP-92 NSCLC = test system: HOP-92 NSCLC
MDA-MB-435 = test system: MDA-MB-435
OVCAR-5 ovarian = test system: OVCAR-5 ovarian
M14 melanoma = test system: M14 melanoma
SK-OV-3 ovarian = test system: SK-OV-3 ovarian
HL-60(TB) leukemia = test system: HL-60(TB) leukemia
RPMI-8226 leukemia = test system: RPMI-8226 leukemia
UO-31 renal = test system: UO-31 renal
HCT-15 colon = test system: HCT-15 colon
NCI-H460 lung = test system: NCI-H460 lung
EKVX NSCLC = test system: EKVX NSCLC
SNB-75 CNS = test system: SNB-75 CNS
IGROV1 ovarian = test system: IGROV1 ovarian
SR leukemia = test system: SR leukemia
ACHN renal = test system: ACHN renal
MCF7 breast = test system: MCF7 breast
SNB-19 CNS = test system: SNB-19 CNS
UACC-62 melanoma = test system: UACC-62 melanoma
PC-3 prostate = test system: PC-3 prostate
HT29 colon = test system: HT29 colon
786-0 renal = test system: 786-0 renal
U251 CNS = test system: U251 CNS
BT-549 breast = test system: BT-549 breast
CCRF-CEM leukemia = test system: CCRF-CEM leukemia
SF-539 CNS = test system: SF-539 CNS
RXF 393 renal = test system: RXF 393 renal
SF-268 CNS = test system: SF-268 CNS
SF-295 CNS = test system: SF-295 CNS
SK-MEL-2 melanoma = test system: SK-MEL-2 melanoma
NCI-H522 lung = test system: NCI-H522 lung
OVCAR-4 ovarian = test system: OVCAR-4 ovarian
NCI-H226 lung = test system: NCI-H226 lung
MALME-3M melanoma = test system: MALME-3M melanoma
HOP-62 NSCLC = test system: HOP-62 NSCLC
HCC-2998 colon = test system: HCC-2998 colon
TK-10 renal = test system: TK-10 renal

Cc1ccc(N2CCN(C3=C(Cl)C(=O)c4ncccc4C3=O)CC2)cc1
GI50 (LOX IMVI melanoma): 1.52 µM | TGI (LOX IMVI melanoma): 2.91 µM | GI50 (K-562 leukemia): 1.35 µM | TGI (K-562 leukemia): 8.53 µM | GI50 (UACC-257 melanoma): 1.75 µM | TGI (UACC-257 melanoma): 3.3 µM | GI50 (SK-MEL-5 melanoma): 1.86 µM | TGI (SK-MEL-5 melanoma): 3.77 µM | GI50 (HCT-116 colon): 1.62 µM | TGI (HCT-116 colon): 2.97 µM | GI50 (A549 NSCLC): 15 µM | TGI (A549 NSCLC): 33.3 µM | GI50 (CAKI-1 renal): 1.68 µM | TGI (CAKI-1 renal): 3.09 µM | GI50 (T-47D breast): 1.61 µM | TGI (T-47D breast): 4.04 µM | GI50 (MOLT-4 leukemia): 2.09 µM | TGI (MOLT-4 leukemia): 5.59 µM | GI50 (OVCAR-8 ovarian): 1.6 µM | TGI (OVCAR-8 ovarian): 2.99 µM | GI50 (SK-MEL-28 melanoma): 2.35 µM | TGI (SK-MEL-28 melanoma): 5.25 µM | GI50 (KM12 colon): 17.5 µM | TGI (KM12 colon): 32 µM | GI50 (HS 578T breast): 3.64 µM | TGI (HS 578T breast): 34.5 µM | GI50 (MDA-MB-231 breast): 1.59 µM | TGI (MDA-MB-231 breast): 3.09 µM | GI50 (COLO 205 colon): 1.84 µM | TGI (COLO 205 colon): 3.33 µM | GI50 (SW-620 colon): 1.47 µM | TGI (SW-620 colon): 3.08 µM | GI50 (DU-145 prostate): 6.05 µM | TGI (DU-145 prostate): 18.3 µM | GI50 (A498 renal): 15 µM | TGI (A498 renal): 28.4 µM | GI50 (HOP-92 NSCLC): 1.63 µM | TGI (HOP-92 NSCLC): 3.17 µM | GI50 (MDA-MB-435): 1.91 µM | TGI (MDA-MB-435): 3.51 µM | GI50 (OVCAR-5 ovarian): 3.36 µM | TGI (OVCAR-5 ovarian): 11.4 µM | GI50 (M14 melanoma): 1.84 µM | TGI (M14 melanoma): 3.69 µM | GI50 (SK-OV-3 ovarian): 12.8 µM | TGI (SK-OV-3 ovarian): 25.8 µM | GI50 (HL-60(TB) leukemia): 1.35 µM | TGI (HL-60(TB) leukemia): 3.87 µM | GI50 (RPMI-8226 leukemia): 2.14 µM | TGI (RPMI-8226 leukemia): 5.79 µM | GI50 (UO-31 renal): 1.53 µM | TGI (UO-31 renal): 3.11 µM | GI50 (HCT-15 colon): 1.54 µM | TGI (HCT-15 colon): 3.28 µM | GI50 (NCI-H460 lung): 4.49 µM | TGI (NCI-H460 lung): 22.6 µM | GI50 (EKVX NSCLC): 1.73 µM | TGI (EKVX NSCLC): 3.14 µM | GI50 (SNB-75 CNS): 12.8 µM | TGI (SNB-75 CNS): 33.3 µM | GI50 (IGROV1 ovarian): 1.74 µM | TGI (IGROV1 ovarian): 3.21 µM | GI50 (SR leukemia): 0.504 µM | TGI (SR leukemia): 4.8 µM | GI50 (ACHN renal): 1.61 µM | TGI (ACHN renal): 2.96 µM | GI50 (MCF7 breast): 1.22 µM | TGI (MCF7 breast): 3.23 µM | GI50 (SNB-19 CNS): 13.4 µM | TGI (SNB-19 CNS): 26.4 µM | GI50 (UACC-62 melanoma): 1.84 µM | TGI (UACC-62 melanoma): 3.6 µM | GI50 (PC-3 prostate): 2.85 µM | TGI (PC-3 prostate): 11.9 µM | GI50 (HT29 colon): 5.05 µM | TGI (HT29 colon): 19.3 µM | GI50 (786-0 renal): 3.35 µM | TGI (786-0 renal): 10.2 µM | GI50 (U251 CNS): 1.79 µM | TGI (U251 CNS): 3.42 µM | GI50 (BT-549 breast): 5.51 µM | TGI (BT-549 breast): 17.3 µM | GI50 (CCRF-CEM leukemia): 2.21 µM | TGI (CCRF-CEM leukemia): 7.09 µM | GI50 (SF-539 CNS): 1.85 µM | TGI (SF-539 CNS): 3.5 µM | GI50 (RXF 393 renal): 1.79 µM | TGI (RXF 393 renal): 3.23 µM | GI50 (SF-268 CNS): 5.91 µM | TGI (SF-268 CNS): 22.2 µM | GI50 (SF-295 CNS): 2.12 µM | TGI (SF-295 CNS): 4.86 µM | GI50 (SK-MEL-2 melanoma): 2.11 µM | TGI (SK-MEL-2 melanoma): 4.48 µM | GI50 (NCI-H522 lung): 1.76 µM | TGI (NCI-H522 lung): 3.53 µM | GI50 (OVCAR-4 ovarian): 1.68 µM | TGI (OVCAR-4 ovarian): 3.29 µM | GI50 (NCI-H226 lung): 10.1 µM | TGI (NCI-H226 lung): 26.5 µM | GI50 (MALME-3M melanoma): 1.77 µM | TGI (MALME-3M melanoma): 3.34 µM | GI50 (HOP-62 NSCLC): 15.4 µM | TGI (HOP-62 NSCLC): 29.4 µM | GI50 (HCC-2998 colon): 1.77 µM | TGI (HCC-2998 colon): 3.38 µM | GI50 (TK-10 renal): 7.15 µM | TGI (TK-10 renal): 18.1 µM
